# Laboratory results taken from patent US9987211B2, “Sunless tanning compounds and compositions” (REGENTS OF THE UNIVERSITY OF MINNESOTA, priority 2013, dated 2018).
# Tested on: guinea pig skin
# Assay: Pigment changes with topical application on guinea pig skin (melanin stimulation)
# Format: in vivo
# Method: Compounds 10, 117 and 123 in a solution of 75% PG/25% DMSO at 300 μM and 600 μM were provided in light tight containers and stored at 4 degrees C. Solutions were brought to room temp and vortexed prior to each use. Female Guinea pigs were shaved with electric clippers and the remaining stubble removed with Nair. The dorsal area of each guinea pig was divided into 2-3 sections. Treatment with compounds/vehicle began immediately after Nair application. 25 μL of each solution was applied to the assigned treatment site twice daily for 5 days. Hair removal, monitoring and photography continued once weekly for 30 days. Photos were taken with a Nikon D80 Digital SLR camera and Miravex Antera Melanin sensing camera.
# [1] = 0.025 mL of 600 μM applied on guinea pig skin twice daily for five consecutive days, by day 15
compound,measurement,setting,value
Cc1cn(CC(Cn2cc(C)c(=O)[nH]c2=O)C(=O)O)c(=O)[nH]c1=O [Compound 117],melanin stimulation relative to surrounding untreated skin,[1],marked melanin stimulation
C[C@@]12C(=O)NC(=O)N3CCCN4C(=O)NC(=O)[C@]1(C)[C@H]4[C@H]32 [Compound 10],melanin stimulation relative to surrounding untreated skin,"0.025 mL of 300 μM applied on guinea pig skin twice daily for five consecutive days, by day 8",marked melanin stimulation
Thymidine dinucleotide 5′-phosphate [reference compound],melanin stimulation relative to surrounding untreated skin,[1],marked melanin stimulation
